Where a name gives a salt, the structure may show the parent alone. Each block holds one compound with its values, some of them ahead of it.
How the values were obtained:
muscarinic receptors = test: Inhibition of 3H-oxotremorine-M binding to muscarinic receptors (rat cerebral cortical membranes); design: species or system rat (male Sprague-Dawley); details: 3 nM 3H-oxotremorine-M, pH 7.4, 15 minutes at 25° C., read-out: Inhibition of 3H-Oxo
Protocol: The affinity of the compounds for the muscarinic receptors was determined using the non-selective agonist ligand, ^3 H-oxotremorine-M. Birdsdall N. J. M., Hulme E. C., and Burgen A. S. V., "The Character of Muscarinic Receptors in Different Regions of the Rat Brain", 207 Proc. Roy. Soc. 1 (London, Series B, 1980). Each compound was tested to determine the affinity of the compound for the muscarinic receptors using the following procedure.
For in vitro binding, male Sprague-Dawley (Harlan Sprague-Dawley, Indianapolis, IN) rats weighing from about 100 to about 150 grams each were sacrificed by decapitation. The brains were quickly removed and the cerebral cortex were dissected from the brain. The cerebral cortex tissue was homogenized in 10 volumes of 0.32M sucrose and homogenized for about 10 minutes at about 1000×g. The supernatant was centrifuged at about 12,000×g for about 10 minutes and the resulting pellet was resuspended in 20 mM tris-Cl, pH 7.4. The resuspended pellet was centrifuged again for about 10 minutes at about 50,000×g. The resulting homogenate was preincubated for about 10 minutes at about 25° C. and centrifuged again for about 10 minutes at about 50,000×g. The pellet was resuspended at 1 gram of pellet per 3 ml of buffer and frozen at about -80° C. until used.
The aforementioned homogenates mixture was incubated for about 15 minutes at about 25° C. and then the homogenates were filtered through glass filters (Whatman, GF/C) with vacuum. The filters were washed 3 times with about 2 ml of cold tris-Cl buffer, and placed in scintillation vials containing about 10 ml of scintillation fluid (Ready Protein+, Beckman, Fullerton, Calif.). Radioactivity trapped on the filters was determined by liquid scintillation spectrometry. Nonspecific binding was determined using 1 μM atropine.

vesico-anal reflex = test: Acetic acid-induced vesico-anal reflex (model of visceral nociception); type: in vivo, rat (female Sprague-Dawley); details: for duration of the increase in vesico-anal reflex activity / increases in vesico-anal reflex activity when administered alone: atropine 30 μg/kg-1 mg/kg, oxybutynin 1-3 mg/kg, administered alone
Excerpt: The model of visceral nociception that was used in the testing of the compounds according to the method of this invention is the acetic acid-induced vesico-anal reflex. This model utilizes infusion of a dilute acetic acid solution into the urinary bladder as a nociceptive stimulus and records increases in electromyographic (EMG) activity from the anal sphincter as the primary measured response. Anal sphincter EMG activity is composed of 2 components, 1) a small, long duration action potential (ca. 50 msec) that is sensitive to muscarinic antagonists and 2) a larger, short duration action potential (ca. 2 msec) that is sensitive to neuromuscular blocking agents (i.e. mediated by nicotinic receptors). These components represent rectal longitudinal smooth muscle activity and external anal sphincter striated muscle activity, respectively, and have been described in detail in a separate publication (Muhlhauser reference). It is the striated anal sphincter muscle activity that 1) is associated with bladder activity, 2) is increased by acetic acid infusion into the bladder, and 3) represents the vesico-anal reflex. The acetic acid-inducedincrease in vesico-anal reflex activity is maintained for over 2 hours in 95% of the animals.
In the acetic acid-induced vesico-anal reflex model, bladders of urethane-anesthetized rats were cannulated through the dome for continuous-infusion cystometrogram recordings. EMG electrodes were inserted into the anus and the peri-urethral musculature for recording anal and urethral sphincteric activity, respectively. Infusion of 0.5% acetic acid into the bladder or urethra produced modest increases in bladder contractile activity and urethral sphincter activity and pronounced increases in anal sphincter activity (i.e. an increase in the vesico-anal reflex). […] These studies indicate that a tonically-active, endogenous, cholinergic muscarinic system plays a role in the suppression of visceral nociception arising from the lower urinary tract.
Female Sprague-Dawley rats (200-300 g) were anesthetized with 1.4 g/kg urethane (0.7 g administered i.p. and 0.7 g administered s.c.), which was supplemented with 1% isoflurane during surgery. The urinary bladder was exposed through an abdominal incision and cannulated with PE60 tubing attached to a 22 gauge needle that was inserted through the dome of the bladder. A purse-string suture (5-0 silk) through the bladder held the needle in place. The cannula was connected to an infusion pump (Harvard Apparatus, ratus, Natick Mass.) and a pressure transducer (Statham Gould, Cleveland, Ohio) through a 3 way stopcock to allow bladder filling and pressure measurement, respectively. The abdominal incision was covered with plastic wrap. A small incision was made in the perineum to allow placement of EMG electrodes into the periurethral musculature. EMG electrodes were also placed into the muscular tissue of the anus. EMG electrodes were connected to preamplifiers (Grass P511, Quincey, Mass.) with low and high pass filters set at 10 and 3000 HZ. […] A catheter inserted into the carotid artery was connected to a pressure transducer (Statham Gould, Cleveland, Ohio) to record arterial pressure, which was used to trigger a heart rate meter (Biotach, Gould, Cleveland, Ohio). A catheter was inserted into the trachea to allow for artificial respiration and monitoring of expired CO2 (Sensor Medics, Anaheim, Calif.). EMG potentials, rate meter output, bladder and arterial pressure, heart rate, and expired CO2 measurements were recorded on a physiograph (Gould, TA4000, Cleveland, Ohio) and stored on an 8-channel digital audio tape recorder (SONY PC-108M, Tokyo, Japan).
After establishing control levels of anal and urethral activity, compounds were administered intravenously. […]

IC50 (muscarinic receptors): 22 nM
Structure (SMILES): COc1nsnc1C1=CCCN(C)C1 [Compound 1, 1,2,5,6-Tetrahydro-3-(3-methoxy-1,2,5-thiadiazol-4-yl)-1-methylpyridine oxalate]

IC50 (muscarinic receptors): 5.7 nM
Structure (SMILES): CCOc1nsnc1C1=CCCN(C)C1 [Compound 2, 3-(3-Ethoxy-1,2,5-thiadiazol-4-yl)-1,2,5,6-tetrahydro-1-methylpyridine oxalate]

IC50 (muscarinic receptors): 1.6 nM
Structure (SMILES): CCCOc1nsnc1C1=CCCN(C)C1 [Compound 3, 1,2,5,6-Tetrahydro-1-methyl-3-(3-propoxy-1,2,5-thiadiazol-4-yl)pyridine oxalate]

Structure (SMILES): CCCCOc1nsnc1C1=CCCN(C)C1 [Compound 4, 3-(3-Butoxy-1,2,5-thiadiazol-4-yl)-1,2,5,6-tetrahydro-1-methylpyridine oxalate]
IC50 (muscarinic receptors): 2 nM

IC50 (muscarinic receptors): 2.7 nM
Structure (SMILES): C=CCCCCOc1nsnc1C1=CCCN(C)C1 [Compound 33, 3-(3-(5-Hexenyloxy)-1,2,5-thiadiazol-4-yl)-1,2,5,6-tetrahydro-1-methylpyridine oxalate]

IC50 (muscarinic receptors): 0.9 nM
Structure (SMILES): CCCSc1nsnc1C1=CCCN(C)C1 [Compound 47, 3-(3-Propylthio-1,2,5-thiadiazol-4-yl)-1,2,5,6-tetrahydro-1-methylpyridine oxalate]

Structure (SMILES): O=C1CCCN1CC#CCN1CCCC1 [Oxotremorine]
reversal of the inhibition of vesico-anal reflex activity by atropine (vesico-anal reflex; atropine 0.3-1 mg/kg): reversed by atropine | vesico-anal reflex activity (inhibited to % of control) (vesico-anal reflex; oxotremorine 1-30 μg/kg iv, test compounds 0.01-1.0 mg/kg iv): 10 % of control | inhibition of vesico-anal reflex activity (vesico-anal reflex; oxotremorine 1-30 μg/kg iv, test compounds 0.01-1.0 mg/kg iv, urethane-anesthetized rats, 0.5% acetic acid): dose-dependent inhibition of vesico-anal reflex activity

Structure (SMILES): C[N+]1(C)[C@@H]2C[C@@H](OC(=O)[C@H](CO)c3ccccc3)C[C@H]1[C@@H]1O[C@@H]12 [Scopolamine methyl bromide]
blocking of the cholinergic agonist-mediated inhibition of the vesico-anal reflex (vesico-anal reflex; 1-30 ug/kg): ineffective at blocking the cholinergic agonist-mediated inhibition of the vesico-anal reflex

Structure (SMILES): CN1[C@@H]2CC[C@H]1C[C@@H](OC(=O)C(CO)c1ccccc1)C2 (stereo partly drawn) [atropine]
duration of the increase in vesico-anal reflex activity (vesico-anal reflex): 15 min | increases in vesico-anal reflex activity when administered alone (vesico-anal reflex): robust, but transient

Structure (SMILES): CCN(CC)CC#CCOC(=O)C(O)(c1ccccc1)C1CCCCC1 (stereo not drawn) [oxybutynin]
duration of the increase in vesico-anal reflex activity (vesico-anal reflex): 15 min | increases in vesico-anal reflex activity when administered alone (vesico-anal reflex): robust, but transient

Structure (SMILES): CNC(=O)Oc1ccc2c(c1)[C@]1(C)CCN(C)[C@@H]1N2C [physostigmine]
suppression of the VA reflex by cholinesterase inhibitors (vesico-anal reflex; rat, in vivo): suppressed the VA reflex in a dose-dependent, atropine-sensitive manner

— patent US5565475A, “Method of treating urinary bladder dysfunctions with 3-tetrahydropyridine derivatives” (priority 1994, dated 1996)
